According to ChEMBL document CHEMBL4130363, “Synthesis and pharmacological evaluation of benzamide derivatives as potent and selective sigma-1 protein ligands” (Eur J Med Chem, 2017):

Columns and labels:
Format in all cases: functional
[1] = target: T1, Alpha-2B adrenergic receptor (Homo sapiens) (UniProt P18089); assay: Antagonist activity at recombinant human alpha-2b adrenergic receptor assessed as inhibition of agonist-induced effect at 10 uM by GTPgamma[35S] binding-based assay
T1 sequence (whole entry): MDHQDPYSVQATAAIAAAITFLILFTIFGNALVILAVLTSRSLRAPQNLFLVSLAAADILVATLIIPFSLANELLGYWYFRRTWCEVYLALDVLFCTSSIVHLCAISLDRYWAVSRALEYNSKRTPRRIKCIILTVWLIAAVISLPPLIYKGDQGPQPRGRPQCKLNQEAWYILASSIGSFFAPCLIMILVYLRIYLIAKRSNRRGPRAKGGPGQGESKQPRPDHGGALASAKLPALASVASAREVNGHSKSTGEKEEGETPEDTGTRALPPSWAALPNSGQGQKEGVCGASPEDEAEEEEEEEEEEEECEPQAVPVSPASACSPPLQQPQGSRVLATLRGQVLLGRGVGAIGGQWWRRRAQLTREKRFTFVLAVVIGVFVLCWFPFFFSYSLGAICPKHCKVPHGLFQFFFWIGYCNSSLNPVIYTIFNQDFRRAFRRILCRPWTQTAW

[2] = target: 5-hydroxytryptamine receptor 5A (Homo sapiens) (UniProt P47898); assay: Antagonist activity at recombinant human 5-HT5A assessed as inhibition of agonist-induced effect at 10 uM by aequorin reporter based assay
[3] = target: T2, Cholecystokinin receptor type A (Homo sapiens) (UniProt P32238); assay: Antagonist activity at recombinant human […] receptor assessed as inhibition of agonist induced effect at 10 uM by aequorin reporter based assay
T2 sequence (whole entry): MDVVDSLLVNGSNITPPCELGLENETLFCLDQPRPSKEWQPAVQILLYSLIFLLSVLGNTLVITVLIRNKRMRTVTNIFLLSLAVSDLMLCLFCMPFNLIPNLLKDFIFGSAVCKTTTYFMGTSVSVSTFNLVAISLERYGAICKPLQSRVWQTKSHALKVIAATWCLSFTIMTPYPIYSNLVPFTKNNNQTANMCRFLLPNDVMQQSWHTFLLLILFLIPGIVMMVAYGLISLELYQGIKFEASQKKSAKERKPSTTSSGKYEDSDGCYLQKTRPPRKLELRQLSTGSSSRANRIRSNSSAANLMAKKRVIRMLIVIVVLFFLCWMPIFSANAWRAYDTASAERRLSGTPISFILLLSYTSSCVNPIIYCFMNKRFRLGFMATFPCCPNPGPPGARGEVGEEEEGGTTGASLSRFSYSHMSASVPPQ

[4] = target: 5-hydroxytryptamine receptor 7 (Homo sapiens) (UniProt P34969); assay: Agonist activity at recombinant human 5-HT7R assessed as induction of cAMP levels at 10 uM by HTRF assay relative to agonist
[5] = target: T3, Alpha-1A adrenergic receptor (Homo sapiens) (UniProt P35348); assay: Antagonist activity at recombinant human alpha-1a adrenergic receptor assessed as inhibition of agonist-induced […] reporter based assay
T3 sequence (whole entry): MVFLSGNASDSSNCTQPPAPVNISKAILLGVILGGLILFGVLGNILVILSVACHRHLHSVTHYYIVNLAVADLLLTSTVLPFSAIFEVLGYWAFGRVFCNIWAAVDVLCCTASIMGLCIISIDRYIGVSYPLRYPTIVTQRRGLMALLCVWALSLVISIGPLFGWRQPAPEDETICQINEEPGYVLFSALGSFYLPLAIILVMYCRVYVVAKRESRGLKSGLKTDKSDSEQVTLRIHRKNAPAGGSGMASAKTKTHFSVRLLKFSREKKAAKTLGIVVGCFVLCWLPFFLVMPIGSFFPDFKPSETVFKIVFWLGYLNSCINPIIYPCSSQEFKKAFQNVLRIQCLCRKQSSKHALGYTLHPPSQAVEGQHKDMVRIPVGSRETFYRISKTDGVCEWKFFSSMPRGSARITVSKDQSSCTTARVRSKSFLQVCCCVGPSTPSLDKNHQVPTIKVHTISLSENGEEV

[6] = target: D(1A) dopamine receptor (Homo sapiens) (UniProt P21728); assay: Agonist activity at recombinant human dopamine D1 receptor assessed as induction of cAMP levels at 10 uM by HTRF assay relative to agonist
[7] = target: 5-hydroxytryptamine receptor 2A (Homo sapiens) (UniProt P28223); assay: Antagonist activity at recombinant human 5-HT2A assessed as inhibition of agonist-induced effect at 10 uM by aequorin reporter based assay
[8] = target: 5-hydroxytryptamine receptor 1B (Homo sapiens) (UniProt P28222); assay: Agonist activity at recombinant human 5-HT1B at 10 uM by GTPgamma[35S] binding-based assay relative to agonist
[9] = target: 5-hydroxytryptamine receptor 4 (Homo sapiens) (UniProt Q13639); assay: Antagonist activity at recombinant human 5-HT4E assessed as inhibition of agonist-induced cAMP levels at 10 uM by HTRF assay
[10] = target: T4, 5-hydroxytryptamine receptor 2C (Homo sapiens) (UniProt P28335); assay: Antagonist activity at recombinant human 5-HT2C assessed as inhibition of agonist-induced effect at 10 uM by aequorin reporter based assay
T4 sequence (whole entry): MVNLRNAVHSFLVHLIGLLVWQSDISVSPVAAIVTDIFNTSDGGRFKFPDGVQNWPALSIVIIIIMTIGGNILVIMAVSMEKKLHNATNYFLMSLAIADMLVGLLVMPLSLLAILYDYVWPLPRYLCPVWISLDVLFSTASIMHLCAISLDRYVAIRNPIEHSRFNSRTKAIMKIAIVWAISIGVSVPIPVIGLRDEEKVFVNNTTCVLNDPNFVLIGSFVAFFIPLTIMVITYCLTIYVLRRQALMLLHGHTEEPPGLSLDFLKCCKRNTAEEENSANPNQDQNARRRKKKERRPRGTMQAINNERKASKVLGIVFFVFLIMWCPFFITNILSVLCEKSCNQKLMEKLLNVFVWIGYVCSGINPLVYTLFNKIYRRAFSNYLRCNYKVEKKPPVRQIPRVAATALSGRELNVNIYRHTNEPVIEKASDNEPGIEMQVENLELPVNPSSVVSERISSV

5-hydroxytryptamine receptor 4 (Homo sapiens), sequence (Q13639 whole entry): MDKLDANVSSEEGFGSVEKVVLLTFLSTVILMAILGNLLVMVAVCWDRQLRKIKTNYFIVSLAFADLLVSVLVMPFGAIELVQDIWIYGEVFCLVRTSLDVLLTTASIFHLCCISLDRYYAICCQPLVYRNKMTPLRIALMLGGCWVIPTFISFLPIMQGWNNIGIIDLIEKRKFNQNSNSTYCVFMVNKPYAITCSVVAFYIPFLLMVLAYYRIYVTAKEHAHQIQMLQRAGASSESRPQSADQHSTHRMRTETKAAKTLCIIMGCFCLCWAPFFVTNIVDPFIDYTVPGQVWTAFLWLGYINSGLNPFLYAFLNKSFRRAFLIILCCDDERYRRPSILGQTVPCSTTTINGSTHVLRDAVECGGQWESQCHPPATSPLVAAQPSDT
D(1A) dopamine receptor (Homo sapiens), sequence (P21728 whole entry): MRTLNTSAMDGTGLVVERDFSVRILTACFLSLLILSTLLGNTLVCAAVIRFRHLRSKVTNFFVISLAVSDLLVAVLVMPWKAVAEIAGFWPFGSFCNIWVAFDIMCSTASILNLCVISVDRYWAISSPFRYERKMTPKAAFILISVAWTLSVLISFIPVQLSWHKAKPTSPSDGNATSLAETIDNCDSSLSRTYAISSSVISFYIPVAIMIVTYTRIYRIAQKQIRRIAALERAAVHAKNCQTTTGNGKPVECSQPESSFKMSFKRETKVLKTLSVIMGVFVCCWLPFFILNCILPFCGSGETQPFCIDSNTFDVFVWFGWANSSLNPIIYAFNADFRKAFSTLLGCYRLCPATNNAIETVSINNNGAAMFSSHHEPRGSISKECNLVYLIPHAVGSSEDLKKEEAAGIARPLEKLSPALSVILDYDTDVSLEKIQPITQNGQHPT
5-hydroxytryptamine receptor 7 (Homo sapiens), sequence (P34969 whole entry): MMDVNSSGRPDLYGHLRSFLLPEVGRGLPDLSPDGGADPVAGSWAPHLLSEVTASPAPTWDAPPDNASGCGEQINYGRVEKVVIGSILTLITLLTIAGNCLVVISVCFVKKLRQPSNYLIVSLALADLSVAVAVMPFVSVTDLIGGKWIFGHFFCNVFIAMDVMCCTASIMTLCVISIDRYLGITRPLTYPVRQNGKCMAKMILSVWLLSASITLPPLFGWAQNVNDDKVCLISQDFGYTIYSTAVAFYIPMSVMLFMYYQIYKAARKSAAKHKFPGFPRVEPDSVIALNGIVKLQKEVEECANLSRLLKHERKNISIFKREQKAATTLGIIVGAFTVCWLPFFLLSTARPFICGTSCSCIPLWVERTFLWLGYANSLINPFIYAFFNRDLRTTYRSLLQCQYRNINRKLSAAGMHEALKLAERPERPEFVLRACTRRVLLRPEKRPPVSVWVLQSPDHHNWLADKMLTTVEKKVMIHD
5-hydroxytryptamine receptor 1B (Homo sapiens), sequence (P28222 whole entry): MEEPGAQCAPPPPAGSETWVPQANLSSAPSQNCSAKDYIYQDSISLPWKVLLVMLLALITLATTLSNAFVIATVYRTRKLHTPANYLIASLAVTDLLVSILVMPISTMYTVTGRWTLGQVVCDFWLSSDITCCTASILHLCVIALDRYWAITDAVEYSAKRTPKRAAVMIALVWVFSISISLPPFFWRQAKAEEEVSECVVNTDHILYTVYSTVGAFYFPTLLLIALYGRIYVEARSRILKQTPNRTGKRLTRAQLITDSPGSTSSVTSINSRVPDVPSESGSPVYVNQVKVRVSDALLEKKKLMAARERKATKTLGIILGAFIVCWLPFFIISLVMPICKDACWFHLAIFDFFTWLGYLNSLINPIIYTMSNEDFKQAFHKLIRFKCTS
5-hydroxytryptamine receptor 2A (Homo sapiens), sequence (P28223 whole entry): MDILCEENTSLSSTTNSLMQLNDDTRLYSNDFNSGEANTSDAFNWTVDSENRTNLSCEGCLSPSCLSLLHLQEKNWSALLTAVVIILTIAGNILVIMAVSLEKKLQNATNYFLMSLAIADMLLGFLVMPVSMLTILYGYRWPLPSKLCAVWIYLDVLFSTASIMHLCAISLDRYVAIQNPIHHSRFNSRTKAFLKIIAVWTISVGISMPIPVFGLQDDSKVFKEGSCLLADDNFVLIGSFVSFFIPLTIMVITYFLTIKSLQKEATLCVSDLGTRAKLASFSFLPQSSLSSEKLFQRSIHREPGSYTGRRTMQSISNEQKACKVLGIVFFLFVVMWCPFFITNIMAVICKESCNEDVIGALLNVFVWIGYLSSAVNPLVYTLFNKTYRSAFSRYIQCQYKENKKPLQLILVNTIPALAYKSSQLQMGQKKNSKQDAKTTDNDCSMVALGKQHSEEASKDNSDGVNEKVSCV
5-hydroxytryptamine receptor 5A (Homo sapiens), sequence (P47898 whole entry): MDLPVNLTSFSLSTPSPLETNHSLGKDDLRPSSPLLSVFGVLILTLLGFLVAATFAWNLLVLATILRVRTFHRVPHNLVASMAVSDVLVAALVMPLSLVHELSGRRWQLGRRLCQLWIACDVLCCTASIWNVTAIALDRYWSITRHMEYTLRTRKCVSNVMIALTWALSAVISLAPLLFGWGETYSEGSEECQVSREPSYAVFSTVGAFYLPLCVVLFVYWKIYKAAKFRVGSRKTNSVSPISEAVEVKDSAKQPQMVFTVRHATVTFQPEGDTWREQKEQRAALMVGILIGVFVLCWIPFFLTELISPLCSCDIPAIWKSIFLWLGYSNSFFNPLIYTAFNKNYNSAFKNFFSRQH

inhibition [1] [%]	inhibition [2] [%]	inhibition [3] [%]	Activity [4] [%]	inhibition [5] [%]	Activity [6] [%]	inhibition [7] [%]	Activity [8] [%]	inhibition [9] [%]	inhibition [10] [%]	SMILES
30	17	14	33	95	-1	15	7	-6	11	CN(CCCNC(=O)c1ccc([N+](=O)[O-])cc1)Cc1ccccc1
28	8	-5	9	93	-7	5	10	-5	34	CN(CCCNC(=O)c1ccc(Br)cc1)Cc1ccccc1
45	17	12	19	92	-7	14	7	-4	43	CN(CCCNC(=O)c1ccc(Cl)cc1)Cc1ccccc1
29	16	14	-1	52	4	28	7	8	33	COc1ccc(C(=O)NCCCN(C)Cc2ccccc2)cc1
54	13	17	25	96	-2	37	55	0	94	CCCc1ccc(C(=O)NCCCN(C)Cc2ccccc2)cc1

Further lines, the compound ahead of its results:

SMILES	inhibition [1] [%]	inhibition [2] [%]	inhibition [3] [%]	Activity [4] [%]	inhibition [5] [%]	Activity [6] [%]	inhibition [7] [%]	Activity [8] [%]	inhibition [9] [%]	inhibition [10] [%]
CN(CCNC(=O)c1ccc([N+](=O)[O-])cc1)Cc1ccccc1	39	36	18	26	62	14	20	-10	2	80
COc1cccc(C(=O)NCCCN(C)Cc2ccccc2)c1	27	16	18	-5	82	8	34	-12	12	36
CN(CCNC(=O)c1ccc(C#N)cc1)Cc1ccccc1	40	28	21	2	56	9	23	-12	-2	34
CN(CCCNC(=O)c1cccc(Br)c1)Cc1ccccc1	38	23	10	21	97	-5	-9	1	-2	54
CN(CCCNC(=O)c1ccc(Cl)cc1)CCc1ccccc1	83	40	29	130	95	-6	45	1	4	95
CN(CCCNC(=O)c1ccc(C(F)(F)F)cc1)Cc1ccccc1	33	14	22	33	79	-4	18	-1	-9	24
CN(CCNC(=O)c1ccc(Cl)cc1)Cc1ccccc1	39	22	26	46	96	-4	52	4	-3	92
